Key:
Burkholderia cepacia [1] = experiment: Survival of flies after Burkholderia cepacia infection; type: in vivo, Drosophila; conditions: relative to vehicle-fed controls, p<0.0001
Experimental: Infections were performed as previously described (Schneider et al. 2007) with Burkholderia cepacia (ATCC strain #25416). Death was assayed visually the next day every hour or more frequently as needed. Survival curves are plotted as Kaplan-Meier graphs and log-rank analysis performed using GraphPad Prism. All infection experiments were performed with a minimum of 3 independent trials and yielded statistically similar results, except where noted. Graphs and p-values in figures are representative trials.
To directly test the role of TORC1 in survival of infection, TORC1 activity was inhibited in two ways. First, flies were injected with rapamycin, a TORC1-specific inhibitor (9.6 ng per fly, equivalent to the mammalian dose of 16 mg/kg (Lee et al. 2009; Loeweth et al. 2002)).
Wild type flies, 5-7 day old males, were fed two different concentrations (250 μM and 500 μM) of Torin (MedChem Express), a TORC1 and TORC2 inhibitor, for two days prior to infection with Burkholderia cepacia as described in Example 1. Controls were fed a vehicle.

Burkholderia cepacia [2] = experiment: Bacterial load quantitation after Burkholderia cepacia infection; type: in vivo, Drosophila; conditions: wild type flies fed Torin vs vehicle-fed flies
Excerpt: Data are plotted with SEM.

Torin was tested, and the survival of infection (Burkholderia cepacia [1]; wild type male flies fed 250 μM for two days prior to infection) was “significantly increased”, the survival of infection (Burkholderia cepacia [1]; wild type male flies fed 500 μM for two days prior to infection) was “significantly increased” and the bacterial load (Burkholderia cepacia [2]) was “not significant change”.

From patent publication US11116754B2, “Inhibition of TOR complex 2 increases immunity against bacterial infection” (THE TRUSTEES OF COLUMBIA UNIVERSITY IN THE CITY OF NEW YORK, priority 2015, dated 2021)
